From patent US12216122B2, “Compositions and methods relating to detection, inhibition, and imaging of indoleamine 2,3-dioxygenase 1 (IDO1)” (Regeneron Pharmaceuticals, Inc., priority 2019, dated 2025)
Entries after “also recorded” stand apart in the source; their conditions may differ. Like-named read-outs stand apart in the source and are kept apart here. Numbered stars: 1 amine (or outer) side, 2 acyl side, 3 side chain; on linkers, the order of the positions; unused ones are H or OH. Bridge positions count the residues as written; N and C are the ends. Square brackets hold non-standard residues; d marks the D form. Triazole bridges read from a SMILES are 1,4-linked. Ends that are not written are not given here. Peptide text beside a SMILES is read from it. * marks the point of attachment. Biotinyl(3aR,4R,6aS) = O=C1N[C@@H]2[C@@H](CS[C@@H]2CCCCC(=O)*)N1; NH(CH2CH2O)5CH2CO = O=C(COCCOCCOCCOCCOCCN[*:1])[*:2]; dTrp(1-Me) = Cn1cc(C[C@@H](N)C(=O)O)c2ccccc21; X1 = O=C(CSc1nonc1/C(=N/O)Nc1ccc(F)c(Br)c1)*; Trp(1-Me) = Cn1cc(C[C@H](N)C(=O)O)c2ccccc21; Lys(N3) = [N-]=[N+]=NCCCC[C@H](N)C(=O)O; Phe(4-F) = N[C@@H](Cc1ccc(F)cc1)C(=O)O; dPhe(4-F) = N[C@H](Cc1ccc(F)cc1)C(=O)O; AEEEA = NCCOCCOCCOCC(=O)O; Pra = C#CC[C@H](N)C(=O)O; βAla = NCCC(=O)O

Tests used:
[1] = Percent organic elution in reverse-phase HPLC (C18) as lipophilicity readout; assay type: physicochemical; details: for % MeCN: Table 16
Description: The predicted increase in lipophilicity for wyvay (SEQ ID NO:2) was experimentally confirmed by the percent organic (% B) elution during reverse-phase HPLC (RP-HPLC) using a C18 column where solvents A=water+0.1% TFA and B=acetonitrile+0.1% TFA.

HeLa cells = assay: Cellular internalization of fluorescent IDO1 ligands (flow cytometry); assay type: cell-based; details: for Internalization of fluorescently labeled peptide, in words: Cy5 or FITC label, flow cytometry
Experimental: Internalization of fluorescently labeled peptides (using Cy5 or FITC) was measured by concentration dependent flow cytometry of unstimulated HeLa cells incubated for one hour with the peptide. […] Internalization was also testing using a cellular inhibition assay, which occurs over 48 hours (rather than the one hour for the flow cytometry assay). Internalized FITC-wyvay (SEQ ID NO:2) at 48 hours was compared to one hour in both unstimulated and stimulated HeLa cells (Table 13). Cell penetration of FITC-wyvay (SEQ ID NO:2) increases with time; more internalized FITC-wyvay (SEQ ID NO:2) can be detected at 48 hours compared to one hour. After one hour, no difference in intracellular staining of FITC-wyvay (SEQ ID NO:2) is observed in unstimulated versus stimulated cells. At 48 hours, there is a slight increase in intracellular FITC-wyvay (SEQ ID NO:2) in stimulated compared to unstimulated cells.
Protocol: HeLa cells were cultured to confluence (˜500,000 cells) in 6-well plates in cell culture medium (DMEM+10% Fetal Bovine Serum (FBS)+1% Penicillin/Streptomycin) or in cell culture medium containing 100 ng/mL IFNγ to stimulate IDO1 expression. The cells were treated with 2 μM or 8 μM macrocyclic IDO1 ligand labeled with either Cy5 or FITC for either 1 hour, 24 hours, or 48 hours as indicated. After treatment, the ligands were aspirated and the cells were washed twice with 1× Phosphate Buffered Saline (PBS). The cells were then harvested by treatment with 0.05% Trypsin-1×EDTA for 5 min at 37° C. Trypsin was quenched by the addition of PBS+2% FBS. The cells in suspension were washed twice in PBS+2% FBS, then resuspended in 500 μL PBS+2% FBS and analyzed for Cy5 or FITC fluorescence using a BD LSR Fortessa X-20 flow cytometer or/and ImageStream X Mark II imaging flow cytometer. Flow Cytometry Standard (fcs) data files were analyzed using FlowJo Software version 10.

[2] = molecular target: T1, His-tagged IDO1 human recombinant protein (Homo sapiens, UniProt P14902); assay: IDO1 ELISA (Affinity Assay): sandwich ELISA, biotinylated ligand immobilized on NEUTRAVIDIN plate; assay type: binding; details: for Binding to human IDO1 by ELISA, in words: alanine scan, 3-mer/4-mer and substituted variants compared with parent macrocycle
T1 construct: purchased BPS Biosciences 71182
Experimental: (§1) Protocol: A black 96-well NEUTRAVIDIN® Coated High Binding Capacity plate (15510, Pierce) was coated with 2 μM biotinylated macrocyclic peptide ligand in TBS (25 mM Tris-HCl, 150 mM NaCl, pH 7.6) for 2 h at room temperature. The plate was aspirated and then washed with Wash Buffer (0.05% (v/v) TWEEN® 20 in PBS, 6×). His-tagged IDO1 human recombinant protein (71182, BPS Biosciences) was serially diluted in Wash Buffer (from 200 to 0 nM) and incubated in the designated microwells for 1 h at room temperature. Microwells were aspirated and subsequently washed with Wash Buffer (11×). To detect the bound IDO1 protein, Alkaline Phosphatase (AP)-conjugated Anti-6×HIS TAG® antibody [HIS-1] (ab49746, Abcam) was prepared at 1:10,000 dilution and added to the microwells for 1 h at room temperature. The plate was aspirated and washed with Wash Buffer (5×). ATTOPHOS® AP Fluorescent Substrate System (S1000, Promega) was employed to develop the microwells. Using an excitation wavelength of 430 nm, fluorescent emission at 535 nm was recorded by Beckman Coulter DTX880 photometer. Titration curves were fit using a four-parameter regression curve fitting program to determine EC50 values.
For these assays, a dilution series of His-tagged IDO1 human recombinant protein was captured using the macrocyclic peptide ligands immobilized on a NEUTRAVIDIN®-coated plate. […] The sequences of the peptide ligands are listed in Table 1, where D-amino acids are denoted in lowercase, Me-Trp=1-methyl-L-tryptophan, and F-Phe=4-fluoro-L-phenylalanine. Chemical structures are shown below Table 1.
The D-alanine substituted, biotin-PEG3-modified macrocycles were tested in the IDO1 ELISA (Affinity assay). For these assays, a dilution series of His-tagged IDO1 human recombinant protein was captured using macrocycles immobilized on a NEUTRAVIDIN®-coated plate.

murine IDO1 protein = murine IDO1 protein (Mus musculus, UniProt P28776); assay: ELISA against murine IDO1 protein (species cross-reactivity); assay type: binding; details: Table 10; read-out: Mouse IDO EC50
Experimental: as §1
To test for cross-reactivity with murine IDO1, the human IDO1 targeted macrocyclic peptide ligands were assayed against the murine IDO1 protein by ELISA.

[3] = binding analysis of VHL-linked Epitope 2 ligand, read-out: EC50
[4] = 2 μM biotinylated macrocycle immobilized, human IDO1 titrated 200 to 0 nM, read-out: EC50, sandwich ELISA for human IDO1 protein against biotin-PEG3-modified macrocycle
[5] = Table 10, read-out: Human IDO EC50

Sequence of murine IDO1 protein (P28776 whole entry): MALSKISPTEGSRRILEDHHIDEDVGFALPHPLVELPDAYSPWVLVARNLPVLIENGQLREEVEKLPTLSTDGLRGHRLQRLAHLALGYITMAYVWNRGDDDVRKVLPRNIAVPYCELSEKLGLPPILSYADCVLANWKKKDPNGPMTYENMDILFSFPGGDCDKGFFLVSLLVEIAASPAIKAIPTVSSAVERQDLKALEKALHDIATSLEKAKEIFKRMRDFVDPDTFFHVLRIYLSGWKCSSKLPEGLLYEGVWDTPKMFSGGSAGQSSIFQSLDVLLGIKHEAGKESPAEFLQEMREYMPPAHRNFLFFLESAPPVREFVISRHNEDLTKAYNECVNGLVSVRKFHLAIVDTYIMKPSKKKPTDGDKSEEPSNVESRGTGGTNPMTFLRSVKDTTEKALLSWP
T1 sequence (P14902 whole entry): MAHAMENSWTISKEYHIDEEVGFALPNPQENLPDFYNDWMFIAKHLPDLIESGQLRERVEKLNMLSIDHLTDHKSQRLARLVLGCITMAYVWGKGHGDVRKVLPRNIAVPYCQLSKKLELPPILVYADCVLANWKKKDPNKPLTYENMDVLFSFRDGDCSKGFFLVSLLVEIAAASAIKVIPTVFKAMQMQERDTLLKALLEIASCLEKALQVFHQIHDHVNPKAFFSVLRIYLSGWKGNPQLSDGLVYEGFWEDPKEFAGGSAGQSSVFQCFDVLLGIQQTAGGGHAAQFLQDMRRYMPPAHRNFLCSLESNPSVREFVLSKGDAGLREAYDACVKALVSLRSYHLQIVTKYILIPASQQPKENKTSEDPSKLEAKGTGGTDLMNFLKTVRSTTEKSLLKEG

Q: Which “HPLC % B” value ([1]; Table 12, C18, A=water+0.1% TFA, B=acetonitrile+0.1% TFA) does the source give for `CC(C)[C@H]1NC(=O)[C@@H](Cc2ccc(O)cc2)NC(=O)[C@@H](Cc2c[nH]c3ccccc23)NC(=O)[C@@H](N)Cc2cn(nn2)CCCC[C@@H](C(N)=O)NC(=O)[C@@H](Cc2ccc(O)cc2)NC(=O)[C@@H](C)NC1=O` [wyvay] (H-[Pra][dW][dY][dV][dA][dY][Lys(N3)]-NH2; triazole 1-7) here?
A: 33.4%

Q: What about the “Internalization of fluorescently labeled peptide, in words” value (HeLa cells) of the same compound?
A: dose response cellular uptake; also recorded: Concentration dependent internalization

Q: What about the EC50 ([2]; Table 12, read-out: EC50) of the same compound?
A: 45 nM

Q: What about the “Binding to human IDO1 by ELISA, in words” value [2] of the same compound?
A: modest loss in binding affinity

Q: What about the EC50 [2, 3] of the same compound?
A: 45 nM

Q: What does the source list for `CC(C)C[C@H]1NC(=O)[C@@H](CC(N)=O)NC(=O)[C@@H](NC(=O)COCCOCCOCCNC(=O)CCCC[C@H]2SC[C@H]3NC(=O)N[C@H]32)Cc2cn(nn2)CCCC[C@@H](C(N)=O)NC(=O)[C@@H](CCCNC(=N)N)NC(=O)[C@@H](Cc2cn(C)c3ccccc23)NC(=O)[C@@H](Cc2c[nH]c3ccccc23)NC1=O` [nlw(Me-Trp)r, biotin-PEG3-Cy(nlw(Me-Trp)r)] ({Biotinyl(3aR,4R,6aS)-AEEEA}-[Pra][dN][dL][dW][dTrp(1-Me)][dR][Lys(N3)]-NH2; triazole 1-7)?
A: EC50 [2, 4]: 43 nM; EC50 [2, 5]: 51 ± 17 nM; EC50 (murine IDO1 protein): 48 nM

Q: Which “% MeCN” value [1] does the source give for `CC(C)[C@H](NC(=O)CCNC(=O)CSc1nonc1/C(=N/O)Nc1ccc(F)c(Br)c1)C(=O)N[C@H](C(=O)N[C@H](C(=O)N[C@H]1Cc2cn(nn2)CCCC[C@@H](C(N)=O)NC(=O)[C@@H](Cc2ccc(O)cc2)NC(=O)[C@@H](C)NC(=O)[C@@H](C(C)C)NC(=O)[C@@H](Cc2ccc(O)cc2)NC(=O)[C@@H](Cc2c[nH]c3ccccc23)NC1=O)C(C)C)C(C)C` [Inh-BA-(Val)3-wyvay] ({X1-βAla}-VVV[Pra][dW][dY][dV][dA][dY][Lys(N3)]-NH2; triazole 4-10) here?
A: 45.12%

Q: What does the source list for `Cn1cc(C[C@H]2NC(=O)[C@@H](Cc3ccccc3)NC(=O)[C@@H](CCCNC(=N)N)NC(=O)[C@@H](Cc3ccccc3)NC(=O)[C@@H](NC(=O)COCCOCCOCCNC(=O)CCCC[C@H]3SC[C@H]4NC(=O)N[C@H]43)Cc3cn(nn3)CCCC[C@@H](C(N)=O)NC(=O)[C@@H](CO)NC2=O)c2ccccc21` [frf(Me-Trp)s, biotin-PEG3-Cy(frf(Me-Trp)s)] ({Biotinyl(3aR,4R,6aS)-AEEEA}-[Pra][dF][dR][dF][dTrp(1-Me)][dS][Lys(N3)]-NH2; triazole 1-7)?
A: EC50 [2, 4]: 20 nM; EC50 ([2]; Example 9, read-out: Binding affinity (EC50) of prioritized Epitope 1 hits): 20 nM; EC50 [2, 5]: 18 ± 2 nM; EC50 (murine IDO1 protein): 36 ± 16 nM

Q: Which “% MeCN” value [1] does the source give for `CC(C)[C@H]1NC(=O)[C@@H](Cc2ccc(O)cc2)NC(=O)[C@@H](Cc2c[nH]c3ccccc23)NC(=O)[C@@H](NC(=O)CNC(=O)CNC(=O)CNC(=O)CNC(=O)CNC(=O)CNC(=O)CNC(=O)CSc2nonc2/C(=N/O)Nc2ccc(F)c(Br)c2)Cc2cn(nn2)CCCC[C@@H](C(N)=O)NC(=O)[C@@H](Cc2ccc(O)cc2)NC(=O)[C@@H](C)NC1=O` [Inh-Gly7-wyvay] (X1-GGGGGGG[Pra][dW][dY][dV][dA][dY][Lys(N3)]-NH2; triazole 8-14) here?
A: 43.72%

Q: Which results are given for `N=C(N)NCCC[C@H]1NC(=O)[C@@H](Cc2ccc(O)cc2)NC(=O)[C@@H](Cc2c[nH]c3ccccc23)NC(=O)[C@@H](NC(=O)COCCOCCOCCNC(=O)CCCC[C@H]2SC[C@H]3NC(=O)N[C@H]32)Cc2cn(nn2)CCCC[C@@H](C(N)=O)NC(=O)[C@@H](Cc2ccc(O)cc2)NC1=O` [wyry, Biotin-PEG3-Cy(wyry)] ({Biotinyl(3aR,4R,6aS)-AEEEA}-[Pra][dW][dY][dR][dY][Lys(N3)]-NH2; triazole 1-6)?
A: Internalization of fluorescently labeled peptide, in words (HeLa cells): Concentration dependent internalization; Binding to human IDO1 by ELISA, in words [2]: best affinity among the 4-mer macrocycles; also recorded: superior binding affinity

Q: For “FITC-nlf(Me-Trp)(F-Phe): FITC labeled Epitope 2 macrocycle nlf(Me-Trp)(F-Phe) ([dN][dL][dF][Trp(1-Me)][Phe(4-F)]; triazole (positions not given here); also: FITC label, site not given here, macrocycle by click between N-terminal Pra and C-terminal Az4, not in chain)”, which “Internalization of fluorescently labeled peptide, in words” value (HeLa cells) is on record?
A: reduced but detectable and concentration dependent

Q: Which results are given for `NC(=O)[C@@H]1CCCCn2cc(nn2)C[C@H](NC(=O)COCCOCCOCCNC(=O)CCCC[C@H]2SC[C@H]3NC(=O)N[C@H]32)C(=O)N[C@H](CO)C(=O)N2CCC[C@@H]2C(=O)N[C@H](Cc2c[nH]c3ccccc23)C(=O)N[C@H](Cc2c[nH]c3ccccc23)C(=O)N[C@H](Cc2ccc(F)cc2)C(=O)N1` [spww(F-Phe), biotin-PEG3-Cy(spww(F-Phe))] ({Biotinyl(3aR,4R,6aS)-AEEEA}-[Pra][dS][dP][dW][dW][dPhe(4-F)][Lys(N3)]-NH2; triazole 1-7)?
A: EC50 [2, 4]: 65 nM; EC50 [2, 5]: 85 ± 18 nM; EC50 (murine IDO1 protein): 44 nM

Q: With `CC(C)[C@H]1NC(=O)[C@@H](Cc2ccc(O)cc2)NC(=O)[C@@H](Cc2c[nH]c3ccccc23)NC(=O)[C@@H](NC(=O)COCCOCCOCCOCCOCCNC(=O)CCNC(=O)CSc2nonc2/C(=N/O)Nc2ccc(F)c(Br)c2)Cc2cn(nn2)CCCC[C@@H](C(N)=O)NC(=O)[C@@H](Cc2ccc(O)cc2)NC(=O)[C@@H](C)NC1=O` [Inh-BA-PEG5-wyvay] ({X1-βAla}-[NH(CH2CH2O)5CH2CO][Pra][dW][dY][dV][dA][dY][Lys(N3)]-NH2; triazole 2-8; N-terminus and C-terminus assumed) as the compound, how does the “% MeCN” value [1] read?
A: 46.90%

Q: What does the source list for `CC(C)C[C@H]1NC(=O)[C@@H](CC(N)=O)NC(=O)[C@@H](NC(=O)COCCOCCOCCNC(=O)CCCC[C@H]2SC[C@H]3NC(=O)N[C@H]32)Cc2cn(nn2)CCCC[C@@H](C(N)=O)NC(=O)[C@@H](Cc2ccc(F)cc2)NC(=O)[C@@H](Cc2cn(C)c3ccccc23)NC(=O)[C@@H](Cc2ccccc2)NC1=O` [nlf(Me-Trp)(F-Phe), biotin-PEG3-Cy(nlf(Me-Trp)(F-Phe))] ({Biotinyl(3aR,4R,6aS)-AEEEA}-[Pra][dN][dL][dF][dTrp(1-Me)][dPhe(4-F)][Lys(N3)]-NH2; triazole 1-7)?
A: EC50 [2, 4]: 20 nM; EC50 [2, 5]: 19 ± 1 nM; EC50 [2, 3]: 44 nM; EC50 (murine IDO1 protein): 89 ± 26 nM

Q: What does the source list for “FITC-wyvay: FITC labeled wyvay macrocycle ([dW][dY][dV][dA][dY]; triazole (positions not given here); also: FITC label, site not given here, macrocycle by click between N-terminal Pra and C-terminal Az4, not in chain)”?
A: MFIR (HeLa cells; stimulated HeLa cells, 1 hour): 2.11; MFIR (HeLa cells; stimulated HeLa cells, 48 hours): 5.27; MFIR (HeLa cells; unstimulated HeLa cells, 1 hour): 2.27; MFIR (HeLa cells; unstimulated HeLa cells, 48 hours): 4.91
